Data published in ChEMBL document CHEMBL5727172, “Inhibitors of hepatitis C virus” (2019).
Several values for one entry are separate records, joined by “and”; a condition that tells them apart may be missing. Identical values can stand only once.

Assay: The internally quenched fluorogenic depsipeptide substrate Ac-DED(Edans)-EEAbuΨ[COO]ASK(Dabcyl)-NH2 and a synthetic peptide containing the hydrophobic core residues of the NS4A protein cofactor ([…]; NS4A peptide) were obtained from Anaspec, Inc. (San Jose, Calif.). Other chemicals and biochemicals were of reagent grade or better and were purchased from standard suppliers.Reactions were run at room temperature in buffer consisting of 50 mM HEPES, 40% glycerol, 0.05% Triton X-100, 10 mM DTT, and 10% DMSO. The final assay solutions contained 50 pM NS3 genotype 1 b protease or 200 pM genotype 3a protease, 20 μM NS4A peptide, and 4 μM substrate (genotype 1b) or 2 μM substrate (genotype 3a). Inhibitor concentrations varied from 100 nM to 5 pM in 3-fold dilutions, and no-inhibitor controls were included.Compound dilutions were made in DMSO at 20× final concentration. Reaction mixtures were prepared in 96-well assay plates. A solution of enzyme and NS4A peptide in assay buffer (25 μL volume with both reagents at 4× final concentration) was mixed with 45 μL assay buffer and 5 μL of either inhibitor or DMSO, and pre-incubated at room temperature for 1 hour. The reaction was started by addition of 25 μL substrate solution at 4× final concentration. […]

Row | SMILES | Ki
1 | C=CCCC[C@@H]1CCCC1(OC(=O)N[C@H](C(=O)N1C[C@H](Oc2nc3cc(OC)ccc3nc2Cl)[C@@H](CC)[C@H]1C(=O)OC(C)(C)C)C(C)(C)C)C(F)(F)F (some centres not stated) | 0.59 nM and 0.52 nM
2 | C=CCC[C@@H]1C[C@H]1OC(=O)N[C@H](C(=O)N1C[C@H](Oc2nc3cc(OC)ccc3nc2C(F)(F)C=C)[C@@H](C)[C@H]1C(=O)OC(C)(C)C)C(C)(C)C | 0.05 nM and 0.19 nM
